Measured values taken from patent US12606526B2, “Substituted salicylamide compounds and use thereof” (HELIOS HUAMING BIOPHARMA CO., LTD., priority 2021, dated 2026).
pIC50: −log10 of the molar value.

Target: PAD4 (Homo sapiens, UniProt Q9UM07)
Assay: PAD4 Inhibition Assay (citrulline formation from BAEE)
Type: biochemical
Settings: PAD4 75 nM, 60-minute preincubation at 37° C., substrate BAEE, 90 minutes
Experimental: PAD4 was diluted to 75 nM in Assay Buffer (50 mM Tris-HCl, 2 mM CaCl2, 2 mM DTT, 1 mM PMSF in H2O) and added to wells with various concentrations of compound or DMSO vehicle in Eppendorf tubes (final volume was 100 μL). Following a 60-minute preincubation at 37° C., the reaction was initiated by the addition of 10 μL substrate (22 mM BAEE in H2O) at 37° C. The reaction was stopped after 90 minutes by the addition of 25 μL HClO4 (5 M), 125 μL Reagent A (10 g/L diacetyl monoxime and 15 g/L NaCl in H2O) and 250 μL Reagent B (10 mg/mL antipyrine and 1.5 mg/mL FeCl3 diluted in detection buffer containing 25% H2SO4, 25% H3PO4 and 50% H2O) in sequence. This assay was quenched in an ice-bath for 5 minutes after boiling for 30 minutes. The citrulline formation was measured in […] (λ=465 nm) on microplate reader and the IC50 was calculated by GraphPad Prism 5.

PAD4, sequence (Q9UM07 whole entry): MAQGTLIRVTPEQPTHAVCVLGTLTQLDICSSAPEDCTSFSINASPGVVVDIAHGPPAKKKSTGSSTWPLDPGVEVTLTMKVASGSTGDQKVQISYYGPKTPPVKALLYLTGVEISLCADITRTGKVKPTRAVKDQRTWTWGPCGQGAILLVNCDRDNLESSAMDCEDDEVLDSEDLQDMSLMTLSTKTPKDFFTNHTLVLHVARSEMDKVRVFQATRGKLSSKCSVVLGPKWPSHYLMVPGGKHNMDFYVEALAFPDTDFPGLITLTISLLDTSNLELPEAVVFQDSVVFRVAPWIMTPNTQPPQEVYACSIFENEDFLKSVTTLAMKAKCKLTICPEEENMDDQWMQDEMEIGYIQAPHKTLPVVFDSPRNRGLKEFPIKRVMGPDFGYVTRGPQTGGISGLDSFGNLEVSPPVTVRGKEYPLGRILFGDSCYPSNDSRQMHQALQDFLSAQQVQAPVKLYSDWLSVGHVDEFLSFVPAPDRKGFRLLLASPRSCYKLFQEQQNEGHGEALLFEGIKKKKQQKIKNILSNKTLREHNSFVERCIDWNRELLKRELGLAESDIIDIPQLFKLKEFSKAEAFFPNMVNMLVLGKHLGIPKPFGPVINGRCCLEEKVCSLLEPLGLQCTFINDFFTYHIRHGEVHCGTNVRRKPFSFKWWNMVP

pIC50 | Compound
> 6.30 | COc1cc2c(OC)cccc2cc1C(=O)N[C@@H](CCCNC(=N)CF)C(=O)NCc1ccccc1 [EX-1, (S)-N-(1-(benzylamino)-5-(2-fluoroacetimidamido)-1-oxopentan-2-yl)-3,5-dimethoxy-2-naphthamide]
> 6.30 | COc1cc2ccccc2cc1C(=O)N[C@@H](CCCNC(=N)CF)C(=O)NCc1ccccc1 [EX-2, (S)-N-(1-(Benzylamino)-5-(2-fluoroacetimidamido)-1-oxopentan-2-yl)-3-methoxy-2-naphthamide]
> 6.30 | COc1cccc(OC)c1C(=O)N[C@@H](CCCNC(=N)CF)C(=O)NCc1ccc(Cl)cc1 [EX-3, (S)-N-(1-((4-Chlorobenzyl)amino)-5-(2-fluoroacetimidamido)-1-oxopentan-2-yl)-2,6-dimethoxybenzamide]
5.00 to 6.30 | COc1cccc(Cl)c1C(=O)N[C@@H](CCCNC(=N)CF)C(=O)NCc1ccc(Cl)cc1 [EX-4, (S)-2-Chloro-N-(1-((4-chlorobenzyl)amino)-5-(2-fluoroacetimidamido)-1-oxopentan-2-yl)-6-methoxybenzamide]
5.00 to 6.30 | COc1ccccc1C(=O)N[C@@H](CCCNC(=N)CF)C(=O)NCc1ccc(Cl)cc1 [EX-5, (S)-N-(1-((4-Chlorobenzyl)amino)-5-(2-fluoroacetimidamido)-1-oxopentan-2-yl)-2-methoxybenzamide]
> 6.30 | COc1ccc(Cl)cc1C(=O)N[C@@H](CCCNC(=N)CF)C(=O)NCc1ccc(Cl)cc1 [EX-6, (S)-5-Chloro-N-(1-((4-chlorobenzyl)amino)-5-(2-fluoroacetimidamido)-1-oxopentan-2-yl)-2-methoxybenzamide]
> 6.30 | COc1ccc(-c2ccccc2)cc1C(=O)N[C@@H](CCCNC(=N)CF)C(=O)NCc1ccccc1 [EX-7, (S)-N-(1-(Benzylamino)-5-(2-fluoroacetimidamido)-1-oxopentan-2-yl)-4-methoxy-[1,1′-biphenyl]-3-carboxamide]
5.00 to 6.30 | COc1ccc(-c2ccccc2)cc1C(=O)N[C@@H](CCCNC(=N)CF)C(=O)NCc1cccc(C)c1 [EX-8, (S)-N-(5-(2-Fluoroacetimidamido)-1-((3-methylbenzyl)amino)-1-oxopentan-2-yl)-4-methoxy-[1,1′-biphenyl]-3-carboxamide]
5.00 to 6.30 | COc1ccc(-c2ccccc2)cc1C(=O)N[C@@H](CCCNC(=N)CF)C(=O)NCc1cccc(Cl)c1 [EX-9, (S)-N-(1-((3-Chlorobenzyl)amino)-5-(2-fluoroacetimidamido)-1-oxopentan-2-yl)-4-methoxy-[1,1′-biphenyl]-3-carboxamide]
> 6.30 | COc1ccc(-c2ccccc2)cc1C(=O)N[C@@H](CCCNC(=N)CF)C(=O)NCc1ccccn1 [EX-10, (S)-N-(5-(2-Fluoroacetimidamido)-1-oxo-1-((pyridin-2-ylmethyl)amino)pentan-2-yl)-4-methoxy-[1,1′-biphenyl]-3-carboxamide]
5.00 to 6.30 | COc1ccc(-c2cccc(Cl)c2)cc1C(=O)N[C@@H](CCCNC(=N)CF)C(=O)NCc1ccccc1 [EX-11, (S)-N-(1-(Benzylamino)-5-(2-fluoroacetimidamido)-1-oxopentan-2-yl)-3′-chloro-4-methoxy-[1,1′-biphenyl]-3-carboxamide]
> 6.30 | COc1ccc(-c2cccc(C)c2)cc1C(=O)N[C@@H](CCCNC(=N)CF)C(=O)NCc1ccccc1 [EX-12, (S)-N-(1-(Benzylamino)-5-(2-fluoroacetimidamido)-1-oxopentan-2-yl)-4-methoxy-3′-methyl-[1,1′-biphenyl]-3-carboxamide]
> 6.30 | COc1ccccc1CNC(=O)[C@H](CCCNC(=N)CF)NC(=O)c1cc(-c2ccccc2)ccc1OC [EX-13, (S)-N-(5-(2-Fluoroacetimidamido)-1-((2-methoxybenzyl)amino)-1-oxopentan-2-yl)-4-methoxy-[1,1′-biphenyl]-3-carboxamide]
> 6.30 | COc1ccc(Cl)cc1C(=O)N[C@@H](CCCNC(=N)CF)C(=O)NCc1cccc(Cl)c1 [EX-14, (S)-5-Chloro-N-(1-((3-chlorobenzyl)amino)-5-(2-fluoroacetimidamido)-1-oxopentan-2-yl)-2-methoxybenzamide]
> 6.30 | COc1ccc(Cl)cc1C(=O)N[C@@H](CCCNC(=N)CF)C(=O)NCc1ccccc1Cl [EX-15, (S)-5-Chloro-N-(1-((2-chlorobenzyl)amino)-5-(2-fluoroacetimidamido)-1-oxopentan-2-yl)-2-methoxybenzamide]
> 6.30 | COc1ccc(Cl)cc1C(=O)N[C@@H](CCCNC(=N)CF)C(=O)NCc1ccc(C)cc1 [EX-16, (S)-5-Chloro-N-(5-(2-fluoroacetimidamido)-1-((4-methylbenzyl)amino)-1-oxopentan-2-yl)-2-methoxybenzamide]
> 6.30 | COc1ccc(CNC(=O)[C@H](CCCNC(=N)CF)NC(=O)c2cc(Cl)ccc2OC)cc1 [EX-17, (S)-5-Chloro-N-(5-(2-fluoroacetimidamido)-1-((4-methoxybenzyl)amino)-1-oxopentan-2-yl)-2-methoxybenzamide]
> 6.30 | COc1ccc(Cl)cc1C(=O)N[C@@H](CCCNC(=N)CF)C(=O)NCc1ccccn1 [EX-18, (S)-5-Chloro-N-(5-(2-fluoroacetimidamido)-1-oxo-1-((pyridin-2-ylmethyl)amino)pentan-2-yl)-2-methoxybenzamide]
> 6.30 | COc1cc2c(OC)cccc2cc1C(=O)N[C@@H](CCCNC(=N)CF)C(=O)NCc1ccc(Cl)cc1 [EX-19, (S)-N-(1-((4-Chlorobenzyl)amino)-5-(2-fluoroacetimidamido)-1-oxopentan-2-yl)-3,5-dimethoxy-2-naphthamide]
> 6.30 | COc1cc2c(OC)cccc2cc1C(=O)N[C@@H](CCCNC(=N)CF)C(=O)NCc1cccc(Cl)c1 [EX-20, (S)-N-(1-((3-Chlorobenzyl)amino)-5-(2-fluoroacetimidamido)-1-oxopentan-2-yl)-3,5-dimethoxy-2-naphthamide]
> 6.30 | COc1cc2c(OC)cccc2cc1C(=O)N[C@@H](CCCNC(=N)CF)C(=O)NCc1cccc(F)c1 [EX-21, (S)-N-(5-(2-Fluoroacetimidamido)-1-((3-fluorobenzyl)amino)-1-oxopentan-2-yl)-3,5-dimethoxy-2-naphthamide]
> 6.30 | COc1cc2c(OC)cccc2cc1C(=O)N[C@@H](CCCNC(=N)CF)C(=O)NCc1ccc(F)cc1 [EX-22, (S)-N-(5-(2-Fluoroacetimidamido)-1-((4-fluorobenzyl)amino)-1-oxopentan-2-yl)-3,5-dimethoxy-2-naphthamide]
> 6.30 | COc1c(C(=O)N[C@@H](CCCNC(=N)CF)C(=O)NCc2ccccc2)ccc2cc(N(C)C)ccc12 [EX-23, (S)-N-(1-(Benzylamino)-5-(2-fluoroacetimidamido)-1-oxopentan-2-yl)-6-(dimethylamino)-1-methoxy-2-naphthamide]
> 6.30 | COc1cc2c(OC)cccc2cc1C(=O)N[C@@H](CCCNC(=N)CF)C(=O)NCc1cccc(NC(=O)CCCNC(=O)CCCC[C@@H]2SC[C@@H]3NC(=O)N[C@@H]32)c1 [EX-24]
